{"source": "patent US20210277008A1", "about": "“IMIDAZO[1,2-B]PYRIDAZINE DERIVATIVES AS TRK INHIBITORS” (BenevolentAI Bio Limited, priority 2018, published 2021)", "type_in_all_cases": "biochemical", "key": {"[1]": {"target": "T1, TrkA (Homo sapiens, UniProt P04629)", "T1 construct": "purchased Invitrogen", "T1 sequence (P04629 33-796)": "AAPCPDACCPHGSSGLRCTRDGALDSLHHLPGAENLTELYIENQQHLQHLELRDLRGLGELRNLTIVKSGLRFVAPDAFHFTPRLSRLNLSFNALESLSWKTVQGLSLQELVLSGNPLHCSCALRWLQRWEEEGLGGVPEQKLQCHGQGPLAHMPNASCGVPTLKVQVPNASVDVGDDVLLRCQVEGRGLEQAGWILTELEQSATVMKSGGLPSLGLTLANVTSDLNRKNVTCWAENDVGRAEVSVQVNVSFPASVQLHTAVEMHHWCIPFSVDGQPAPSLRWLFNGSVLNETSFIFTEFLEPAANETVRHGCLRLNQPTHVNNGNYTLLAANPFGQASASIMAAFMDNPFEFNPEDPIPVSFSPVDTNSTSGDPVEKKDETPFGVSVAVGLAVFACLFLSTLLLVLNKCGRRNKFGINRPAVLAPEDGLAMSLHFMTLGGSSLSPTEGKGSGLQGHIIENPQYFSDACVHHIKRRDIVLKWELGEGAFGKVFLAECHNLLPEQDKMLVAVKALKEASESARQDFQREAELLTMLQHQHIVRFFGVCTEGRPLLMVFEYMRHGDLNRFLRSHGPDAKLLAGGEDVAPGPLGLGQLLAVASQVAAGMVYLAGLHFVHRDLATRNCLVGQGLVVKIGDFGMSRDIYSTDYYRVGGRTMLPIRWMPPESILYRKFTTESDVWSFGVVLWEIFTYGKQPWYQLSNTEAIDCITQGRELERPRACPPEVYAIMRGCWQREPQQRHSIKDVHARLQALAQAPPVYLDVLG", "assay": "HTRF KinEASE kinase assay, TrkA enzyme", "details": "recombinant Human TRK enzyme, NTRK1 4 nM, read-out: TrkA Enz (nM), Trk inhibition activity expressed as IC50", "method": "(§1) To determine the IC50 of small molecule compounds for the Human TRK receptors, HTRF® KinEASE™ kinase kits from Cisbio were used. Assays were carried out in low volume, black 384-well plates.\n(§2) Recombinant Human TRK enzymes (Invitrogen) were incubated in the presence or absence of the compound (11-point dose response with FAC as 10 μM) for 30 minutes at 23° C. Kinase reaction was started by addition of ATP to a mixture containing the enzyme (NTRK1-4 nM, NTRK2-1 nM, NTRK3-10 nM) and substrate (1 μM). Kinase reaction was allowed to carry on for 10 to 45 minutes at 23° C. after which it was stopped by addition of the detection mix (supplied by vendor) containing EDTA, TK-Ab-labelled with Eu^3+-cryptate (1:200 dilutions) and Streptavidin-XL665 (250 nM). Assay plates were incubated in this detection mix for 60 minutes at 23° C. The resulting TR-FRET signal, calculated as the fluorescence ratio at 665/620 nm, was read on an Envision and was proportional to the level of phosphorylation of the peptide in the presence or absence of the compound. The uniformity of the plates were assured with Z′ value [1-{3*(SDHPE+SDZPE)/(ZPE-HPE)}]. The percent (%) effect i.e. Inhibition of compound was calculated in comparison to the signal in the positive (HPE) and negative control (ZPE) wells within each assay plate. The endpoint value % Inhibition for the Standard compound was evaluated in each experiment as a quality control measure. IC50 was determined by plotting compound inhibition at respective dose in Graphpad prism5 using four parameter logistic curve fit."}, "[2]": {"target": "T2, TrkB (Homo sapiens, UniProt Q16620)", "T2 construct": "purchased Invitrogen", "T2 sequence (Q16620 32-822)": "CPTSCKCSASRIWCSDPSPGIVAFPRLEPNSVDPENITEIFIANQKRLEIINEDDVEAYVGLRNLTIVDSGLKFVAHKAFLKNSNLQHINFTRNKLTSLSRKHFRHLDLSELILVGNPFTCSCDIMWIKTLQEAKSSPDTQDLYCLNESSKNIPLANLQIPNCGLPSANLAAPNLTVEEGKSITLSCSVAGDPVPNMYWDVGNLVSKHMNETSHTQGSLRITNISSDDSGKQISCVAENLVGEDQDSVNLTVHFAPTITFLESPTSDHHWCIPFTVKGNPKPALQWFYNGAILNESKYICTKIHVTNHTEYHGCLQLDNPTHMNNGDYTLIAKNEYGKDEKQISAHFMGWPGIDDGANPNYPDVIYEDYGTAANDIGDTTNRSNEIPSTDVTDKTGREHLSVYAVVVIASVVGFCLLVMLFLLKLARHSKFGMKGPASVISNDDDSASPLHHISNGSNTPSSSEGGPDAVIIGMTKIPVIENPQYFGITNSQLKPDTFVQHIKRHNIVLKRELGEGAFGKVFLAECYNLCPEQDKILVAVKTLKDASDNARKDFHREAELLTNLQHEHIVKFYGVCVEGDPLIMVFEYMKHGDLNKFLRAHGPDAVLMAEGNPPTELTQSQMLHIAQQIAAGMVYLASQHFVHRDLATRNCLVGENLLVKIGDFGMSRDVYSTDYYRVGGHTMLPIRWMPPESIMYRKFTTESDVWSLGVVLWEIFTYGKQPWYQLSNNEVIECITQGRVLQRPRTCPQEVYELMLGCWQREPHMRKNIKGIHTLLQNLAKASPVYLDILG", "assay": "HTRF KinEASE kinase assay, TrkB enzyme", "details": "recombinant Human TRK enzyme, NTRK2 1 nM, read-out: TrkB Enz (nM), Trk inhibition activity expressed as IC50", "method": "as §1, §2"}, "[3]": {"target": "T3, TrkC (Homo sapiens, UniProt Q16288)", "T3 construct": "purchased Invitrogen", "T3 sequence (Q16288 32-839)": "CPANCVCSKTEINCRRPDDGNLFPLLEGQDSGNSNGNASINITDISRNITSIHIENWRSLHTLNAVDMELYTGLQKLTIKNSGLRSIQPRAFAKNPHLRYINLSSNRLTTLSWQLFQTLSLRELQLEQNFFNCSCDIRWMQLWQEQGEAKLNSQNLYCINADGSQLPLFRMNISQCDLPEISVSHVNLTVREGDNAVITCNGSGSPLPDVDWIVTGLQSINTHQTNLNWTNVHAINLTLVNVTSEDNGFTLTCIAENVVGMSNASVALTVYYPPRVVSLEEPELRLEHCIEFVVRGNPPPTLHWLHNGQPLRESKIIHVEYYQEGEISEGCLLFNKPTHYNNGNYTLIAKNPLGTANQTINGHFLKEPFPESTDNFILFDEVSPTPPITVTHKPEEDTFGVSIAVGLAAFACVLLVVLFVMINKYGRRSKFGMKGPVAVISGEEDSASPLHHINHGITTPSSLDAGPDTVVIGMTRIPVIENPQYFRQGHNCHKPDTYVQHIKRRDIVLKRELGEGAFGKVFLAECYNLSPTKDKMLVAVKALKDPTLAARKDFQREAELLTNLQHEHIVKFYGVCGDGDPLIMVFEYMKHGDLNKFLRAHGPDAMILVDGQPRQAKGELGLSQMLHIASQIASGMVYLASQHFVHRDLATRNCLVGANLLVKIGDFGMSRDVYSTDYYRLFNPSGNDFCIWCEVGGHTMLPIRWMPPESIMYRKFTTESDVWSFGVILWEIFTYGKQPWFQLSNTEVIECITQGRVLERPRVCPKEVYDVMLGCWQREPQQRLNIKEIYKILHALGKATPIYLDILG", "assay": "HTRF KinEASE kinase assay, TrkC enzyme", "details": "recombinant Human TRK enzyme, NTRK3 10 nM, read-out: TrkC Enz (nM), Trk inhibition activity expressed as IC50", "method": "as §1, §2"}}, "data": [{"smiles": "CSc1ccc(F)cc1[C@H]1C[C@H](F)CN1c1ccc2ncc(/C(=N/C#N)NC3CCCCC3)n2n1", "note": "[Example 6, (Z)-N′-cyano-N-cyclohexyl-6-[(2R,4S)-4-fluoro-2-[5-fluoro-2-(methylsulfanyl)phenyl]pyrrolidin-1-yl]imidazo[1,2-b]pyridazine-3-carboximidamide]", "values": [{"measurement": "IC50", "setting": "[1]", "result": 1.52, "unit": "nM"}, {"measurement": "IC50", "setting": "[2]", "result": 0.7, "unit": "nM"}, {"measurement": "IC50", "setting": "[3]", "result": 1.91, "unit": "nM"}]}, {"smiles": "CSc1ccc(F)cc1[C@H]1CCCN1c1ccc2ncc(/C(=N/C#N)N[C@@H]3CCCOC3)n2n1", "note": "[Example 1, (Z)-N′-cyano-6-[(2R)-2-[5-fluoro-2-(methylsulfanyl)phenyl]pyrrolidin-1-yl]-N-[(3R)-oxan-3-yl]imidazo[1,2-b]pyridazine-3-carboximidamide]", "values": [{"measurement": "IC50", "setting": "[1]", "result": 0.95, "unit": "nM"}, {"measurement": "IC50", "setting": "[2]", "result": 0.88, "unit": "nM"}, {"measurement": "IC50", "setting": "[3]", "result": 1.6, "unit": "nM"}]}, {"smiles": "CCCCN/C(=N\\C#N)c1cnc2ccc(N3C[C@@H](F)C[C@@H]3c3cc(F)ccc3SC)nn12", "note": "[Example 5, (Z)-N-butyl-N′-cyano-6-[(2R,4S)-4-fluoro-2-[5-fluoro-2-(methylsulfanyl)phenyl]pyrrolidin-1-yl]imidazo[1,2-b]pyridazine-3-carboximidamide]", "values": [{"measurement": "IC50", "setting": "[1]", "result": 1.1, "unit": "nM"}, {"measurement": "IC50", "setting": "[2]", "result": 0.41, "unit": "nM"}, {"measurement": "IC50", "setting": "[3]", "result": 1.61, "unit": "nM"}]}, {"smiles": "CSc1ccc(F)cc1[C@H]1CCCN1c1ccc2ncc(/C(=N/C#N)N[C@H]3CCCOC3)n2n1", "note": "[Example 2, (Z)-N′-cyano-6-[(2R)-2-[5-fluoro-2-(methylsulfanyl)phenyl]pyrrolidin-1-yl]-N-[(3S)-oxan-3-yl]imidazo[1,2-b]pyridazine-3-carboximidamide]", "values": [{"measurement": "IC50", "setting": "[1]", "result": 1.04, "unit": "nM"}, {"measurement": "IC50", "setting": "[2]", "result": 0.83, "unit": "nM"}, {"measurement": "IC50", "setting": "[3]", "result": 1.78, "unit": "nM"}]}, {"smiles": "CCN/C(=N\\C#N)c1cnc2ccc(N3C[C@@H](F)C[C@@H]3c3cc(F)ccc3SC)nn12", "note": "[Example 4, (Z)-N′-cyano-N-ethyl-6-[(2R,4S)-4-fluoro-2-[5-fluoro-2-(methylsulfanyl)phenyl]pyrrolidin-1-yl]imidazo[1,2-b]pyridazine-3-carboximidamide]", "values": [{"measurement": "IC50", "setting": "[1]", "result": 0.97, "unit": "nM"}, {"measurement": "IC50", "setting": "[2]", "result": 0.23, "unit": "nM"}, {"measurement": "IC50", "setting": "[3]", "result": 1, "unit": "nM"}]}, {"smiles": "CSc1ccc(F)cc1[C@H]1CCCN1c1ccc2ncc(/C(=N/C#N)NCc3cccc(O)c3)n2n1", "note": "[Example 7, (Z)-N′-cyano-6-[(2R)-2-[5-fluoro-2-(methylsulfanyl)phenyl]pyrrolidin-1-yl]-N-[(3-hydroxyphenyl)methyl]imidazo[1,2-b]pyridazine-3-carboximidamide]", "values": [{"measurement": "IC50", "setting": "[1]", "result": 1.44, "unit": "nM"}, {"measurement": "IC50", "setting": "[2]", "result": 1.55, "unit": "nM"}, {"measurement": "IC50", "setting": "[3]", "result": 3.16, "unit": "nM"}]}, {"smiles": "CCN/C(=N\\C#N)c1cnc2ccc(N3C[C@@H](F)C[C@@H]3c3cc(F)cc(SC)c3)nn12", "note": "[Example 3, (Z)-N′-cyano-N-ethyl-6-[(2R,4S)-4-fluoro-2-[5-fluoro-3-(methylsulfanyl)phenyl]pyrrolidin-1-yl]imidazo[1,2-b]pyridazine-3-carboximidamide]", "values": [{"measurement": "IC50", "setting": "[1]", "result": 1.17, "unit": "nM"}, {"measurement": "IC50", "setting": "[2]", "result": 0.37, "unit": "nM"}, {"measurement": "IC50", "setting": "[3]", "result": 1.53, "unit": "nM"}]}]}
